Data set [1] concerns the target T1, P450 3A4 (Homo sapiens, UniProt P08684). The experiment in a line: Human liver microsomes, testosterone 6β-hydroxylation. The format is biochemical. The settings on record: pooled human liver microsomes. As for the experimental part:
(§1) Human liver tissues were obtained from the University of Chicago Distribution Center of […] (Liver Transplant Procurement and Distribution Service, University of Minnesota, Minneapolis, Minn.), Human Biologics Inc. (Phoenix, Ariz.) and the International Institute for the Advancement of Science (Exton, Pa.). The liver microsomes were prepared by differential centrifugation. […] Anal. […] S. Hydroxylation of chlorzoxazone as a specific probe for human liver cytochrome P-450 IIEI. Chem. Res. […] The reactions were initiated by the additions of 1 mM NADPH and terminated in ice. […] A. Assay of mephenytoin metabolism in human liver microsomes by high-performance liquid chromatography. […] Experimental controls consisted of the complete incubation components without the addition of BG.
Target sequence in this assay (P08684 whole entry): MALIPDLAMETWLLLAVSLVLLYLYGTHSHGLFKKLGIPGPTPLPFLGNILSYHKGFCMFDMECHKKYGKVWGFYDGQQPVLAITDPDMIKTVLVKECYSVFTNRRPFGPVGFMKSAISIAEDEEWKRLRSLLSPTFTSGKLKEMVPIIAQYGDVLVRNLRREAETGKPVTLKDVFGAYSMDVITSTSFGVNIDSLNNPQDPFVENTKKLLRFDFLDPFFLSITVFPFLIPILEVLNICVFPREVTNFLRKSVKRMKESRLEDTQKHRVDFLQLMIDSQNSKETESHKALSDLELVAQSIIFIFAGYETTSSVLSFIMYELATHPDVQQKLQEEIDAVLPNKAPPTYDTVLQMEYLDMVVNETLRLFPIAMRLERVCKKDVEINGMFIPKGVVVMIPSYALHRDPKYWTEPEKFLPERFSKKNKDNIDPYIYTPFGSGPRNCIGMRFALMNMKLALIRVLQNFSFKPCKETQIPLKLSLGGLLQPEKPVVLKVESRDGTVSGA

The target of another data set is T2, P450 2C19 (Homo sapiens, UniProt P33261).
T2 construct: incubated with pooled human liver microsomes; from tissue; host or cells: pooled human liver microsomes
Nature of the data set: Human liver microsomes, (S)-mephenytoin 4′-hydroxylation. Format: biochemical. The settings on record: pooled human liver microsomes, probe (S)-mephenytoin (50 μM), read-out: P450 2C19 activity inhibited. How it is done:
(§2) Human liver tissues were obtained from the University of Chicago Distribution Center of […] (Liver Transplant Procurement and Distribution Service, University of Minnesota, Minneapolis, Minn.), Human Biologics Inc. (Phoenix, Ariz.) and the International Institute for the Advancement of Science (Exton, Pa.). The liver microsomes were prepared by differential centrifugation. Caffeine N3-demethylation (Tassaneeyakul W., Mohammed […]., Veronese M. E., Tukey R. H., Quattrochi […]., and Miners J. O. Caffeine as a probe for human cytochromes P450: Validation using cDNA-expression,immunoinhibition, and microsomal kinetic and inhibitor techniques. Pharmacogenetics, 1992;2:173-183), coumarin 7-hydroxylation ([…]. Metabolism of coumarin by rat, gerbil, and human liver microsomes. Xenobiotica, 1992;22:357-367), tolbutamide hydroxylation (Miners J. O., Smith K. J., Robson […]., Veronese M. E., and Birkett D. J. Tolbutamide hydroxylation by human liver microsomes: Kinetic characterization and relationship to other cytochrome P-450 dependent xenobiotic oxidations. Biochem. Pharmacol., 1988;37:1137-1144), racemic bufurolol 1'-hydroxylation ([…]., Gut […]., and Meyer U. A. […] Anal. […] S. Hydroxylation of chlorzoxazone as a specific probe for human liver cytochrome P-450 IIEI. Chem. Res. […] The reactions were initiated by the additions of 1 mM NADPH and terminated in ice. […]
For orientation: Liver microsomes are vesicles of endoplasmic reticulum, rich in cytochrome P450 enzymes.

Data set [2] has as its target T1, P450 3A4. The experiment in a line: HPLC analysis of BG-inactivated P450 3A4 on a Poros column. The format is biochemical. Set-up: A full-length P450 3A4 cDNA (except for the deletion of codons 3-12 at the 5′-end); made in house; host or cells: E. coli MV1304 (pCW vector). An excerpt: S., Hopkins N. E., Alworth D. A., and Hollenberg P. F. […] The eluate was monitored by UV detection at […], 310, and 405 nm simultaneously.
Target sequence in this assay (P08684 with tags, fused parts or gaps): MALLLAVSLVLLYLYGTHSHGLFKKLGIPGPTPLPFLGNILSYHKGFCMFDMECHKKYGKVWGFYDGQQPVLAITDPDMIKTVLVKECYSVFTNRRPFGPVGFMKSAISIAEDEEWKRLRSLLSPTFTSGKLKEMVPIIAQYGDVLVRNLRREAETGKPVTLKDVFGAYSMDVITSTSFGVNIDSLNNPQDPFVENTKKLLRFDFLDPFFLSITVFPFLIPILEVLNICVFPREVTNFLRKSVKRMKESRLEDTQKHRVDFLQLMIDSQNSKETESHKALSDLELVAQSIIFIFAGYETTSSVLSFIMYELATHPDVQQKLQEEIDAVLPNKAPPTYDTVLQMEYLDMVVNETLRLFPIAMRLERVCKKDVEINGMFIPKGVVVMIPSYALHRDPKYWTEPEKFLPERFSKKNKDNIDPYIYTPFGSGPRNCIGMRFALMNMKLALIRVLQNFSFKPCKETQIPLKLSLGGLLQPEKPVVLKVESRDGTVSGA

For the next data set, the target named is T3, P450 2E1 (Homo sapiens, UniProt P05181).
T3 construct: Pooled human liver microsomes; from tissue; host or cells: human liver microsomes, pool of 6
The experiment in a line: Human liver microsomes, chlorzoxazone 6-hydroxylation. Format: biochemical. Conditions: pooled human liver microsomes. As for the experimental part:
as §2

For the next data set, the target named is T4, P450 2A6 (Homo sapiens, UniProt P11509).
T4 construct: Pooled human liver microsomes; from tissue; host or cells: human liver microsomes, pool of 6
T4 sequence (P11509 1-494): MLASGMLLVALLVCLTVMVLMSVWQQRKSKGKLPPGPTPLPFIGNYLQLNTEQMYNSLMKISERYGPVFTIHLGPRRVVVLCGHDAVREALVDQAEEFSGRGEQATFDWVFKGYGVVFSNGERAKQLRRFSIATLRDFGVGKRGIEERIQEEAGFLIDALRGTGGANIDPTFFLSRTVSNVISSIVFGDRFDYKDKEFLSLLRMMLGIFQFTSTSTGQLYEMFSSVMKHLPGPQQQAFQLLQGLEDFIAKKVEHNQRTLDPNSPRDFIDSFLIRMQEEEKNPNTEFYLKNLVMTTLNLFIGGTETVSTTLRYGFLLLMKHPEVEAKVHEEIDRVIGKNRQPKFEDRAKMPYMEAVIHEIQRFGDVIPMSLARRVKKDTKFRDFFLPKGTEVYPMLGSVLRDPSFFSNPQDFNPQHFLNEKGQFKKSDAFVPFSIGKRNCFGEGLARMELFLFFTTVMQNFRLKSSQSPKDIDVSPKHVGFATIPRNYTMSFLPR
Nature of the data set: Human liver microsomes, coumarin 7-hydroxylation. Format: biochemical. Conditions: pooled microsomes, 4 μM coumarin. As for the experimental part:
as §2

The target in a further data set is T5, P450 2C9 (Homo sapiens, UniProt P11712).
T5 construct: Pooled human liver microsomes; from tissue; host or cells: human liver microsomes, pool of 6
The experiment in a line: Human liver microsomes, tolbutamide hydroxylation. Format: biochemical. The settings on record: pooled human liver microsomes. How it is done:
as §1

In a further data set the target is T6, P450 2D6 (Homo sapiens, UniProt P10635).
T6 construct: Pooled human liver microsomes; from tissue; host or cells: human liver microsomes, pool of 6
The experiment in a line: Human liver microsomes, racemic bufurolol 1′-hydroxylation. The format is biochemical. Conditions: pooled human liver microsomes. As for the experimental part: as §2

A further data set has as its target T7, P450 1A2 (Homo sapiens, UniProt P05177).
T7 sequence (P05177 1-516): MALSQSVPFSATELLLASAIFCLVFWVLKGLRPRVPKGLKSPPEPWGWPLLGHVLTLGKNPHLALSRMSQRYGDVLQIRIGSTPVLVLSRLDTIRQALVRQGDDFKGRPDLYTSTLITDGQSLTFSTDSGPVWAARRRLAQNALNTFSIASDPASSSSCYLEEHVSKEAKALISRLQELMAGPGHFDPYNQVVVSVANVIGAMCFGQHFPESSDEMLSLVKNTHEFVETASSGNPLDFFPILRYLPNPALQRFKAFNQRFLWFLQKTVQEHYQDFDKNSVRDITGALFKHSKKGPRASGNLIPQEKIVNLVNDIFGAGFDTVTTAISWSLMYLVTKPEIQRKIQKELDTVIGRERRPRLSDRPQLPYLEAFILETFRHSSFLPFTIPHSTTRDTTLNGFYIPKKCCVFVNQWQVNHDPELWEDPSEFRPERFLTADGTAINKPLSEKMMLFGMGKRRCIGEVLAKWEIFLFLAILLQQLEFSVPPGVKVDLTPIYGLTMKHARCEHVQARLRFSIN
The experiment in a line: Human liver microsomes, caffeine N3-demethylation. Format: biochemical. Conditions: pooled microsomes, 100 μM caffeine. How it is done: as §2

The target in data set [3] is T1, P450 3A4. Nature of the data set: P450 content by reduced-CO difference spectrum after incubation in the reconstituted system. Format: biochemical. Further details: A full-length P450 3A4 cDNA (except for the deletion of codons 3-12 at the 5′-end); made in house; host or cells: E. coli MV1304 (pCW vector). Conditions: 50 μM BG, 15 minutes; for P450: 37° C. How it is done: Reactions with various concentrations of BG were initiated by addition of 1 mM NADPH, and terminated on ice. The incubations were performed at 37° C. for the time periods indicated. […] The spectra were recorded between 330 to 700 nm against the diluting buffer as reference on a […] spectrophotometer in the split beam mode.
Target sequence in this assay (P08684 with tags, fused parts or gaps): as the sequence (P08684 with tags, fused parts or gaps) above

Data set [4] concerns the target T1, P450 3A4. Nature of the data set: BG-mediated inactivation of P450 3A4 in a reconstituted system, testosterone 6β-hydroxylation activity.
Target sequence in this assay (P08684 with tags, fused parts or gaps): as the sequence (P08684 with tags, fused parts or gaps) above
The mark [5] stands for this setting: human, pH 7.5, probe testosterone (200 μM), 6β-hydroxylation.

T2 sequence (P33261 whole entry): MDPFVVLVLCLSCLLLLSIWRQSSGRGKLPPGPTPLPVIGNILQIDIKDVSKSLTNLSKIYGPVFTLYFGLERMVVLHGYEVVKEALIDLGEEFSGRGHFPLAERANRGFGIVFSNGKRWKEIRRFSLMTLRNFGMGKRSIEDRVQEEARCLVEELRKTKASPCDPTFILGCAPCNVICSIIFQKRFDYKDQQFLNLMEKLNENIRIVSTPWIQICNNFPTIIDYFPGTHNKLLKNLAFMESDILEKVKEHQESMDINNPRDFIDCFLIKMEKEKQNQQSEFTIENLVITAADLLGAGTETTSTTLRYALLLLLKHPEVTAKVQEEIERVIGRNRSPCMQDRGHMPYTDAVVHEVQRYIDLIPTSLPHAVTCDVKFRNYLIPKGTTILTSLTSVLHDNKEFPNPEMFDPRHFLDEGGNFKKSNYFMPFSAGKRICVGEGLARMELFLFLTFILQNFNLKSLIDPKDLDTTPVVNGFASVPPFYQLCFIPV
T6 sequence (P10635 whole entry): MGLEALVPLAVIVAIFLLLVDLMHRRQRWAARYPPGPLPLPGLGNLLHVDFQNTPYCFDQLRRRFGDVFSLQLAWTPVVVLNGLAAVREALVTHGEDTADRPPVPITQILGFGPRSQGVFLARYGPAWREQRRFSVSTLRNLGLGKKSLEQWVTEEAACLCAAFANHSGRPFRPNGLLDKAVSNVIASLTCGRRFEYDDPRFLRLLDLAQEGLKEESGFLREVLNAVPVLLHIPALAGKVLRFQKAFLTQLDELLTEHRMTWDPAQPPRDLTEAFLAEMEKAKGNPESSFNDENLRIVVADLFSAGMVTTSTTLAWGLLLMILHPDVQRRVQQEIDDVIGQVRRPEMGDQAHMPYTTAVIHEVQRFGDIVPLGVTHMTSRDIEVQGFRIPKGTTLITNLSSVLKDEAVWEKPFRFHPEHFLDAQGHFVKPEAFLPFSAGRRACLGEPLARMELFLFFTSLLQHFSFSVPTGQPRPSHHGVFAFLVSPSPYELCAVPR
T3 sequence (P05181 whole entry): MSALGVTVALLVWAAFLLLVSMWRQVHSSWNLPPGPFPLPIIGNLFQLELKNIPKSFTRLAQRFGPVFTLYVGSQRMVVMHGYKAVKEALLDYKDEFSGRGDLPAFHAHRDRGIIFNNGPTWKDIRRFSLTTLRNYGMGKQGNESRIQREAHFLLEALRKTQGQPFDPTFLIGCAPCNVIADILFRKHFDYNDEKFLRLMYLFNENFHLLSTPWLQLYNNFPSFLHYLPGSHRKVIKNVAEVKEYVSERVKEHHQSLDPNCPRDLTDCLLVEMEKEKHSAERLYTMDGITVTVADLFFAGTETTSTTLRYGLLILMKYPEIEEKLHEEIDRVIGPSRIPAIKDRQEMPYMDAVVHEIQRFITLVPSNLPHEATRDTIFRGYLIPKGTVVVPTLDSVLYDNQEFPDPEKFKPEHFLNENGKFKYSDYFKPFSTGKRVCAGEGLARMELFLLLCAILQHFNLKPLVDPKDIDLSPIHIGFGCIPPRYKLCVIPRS
T5 sequence (P11712 whole entry): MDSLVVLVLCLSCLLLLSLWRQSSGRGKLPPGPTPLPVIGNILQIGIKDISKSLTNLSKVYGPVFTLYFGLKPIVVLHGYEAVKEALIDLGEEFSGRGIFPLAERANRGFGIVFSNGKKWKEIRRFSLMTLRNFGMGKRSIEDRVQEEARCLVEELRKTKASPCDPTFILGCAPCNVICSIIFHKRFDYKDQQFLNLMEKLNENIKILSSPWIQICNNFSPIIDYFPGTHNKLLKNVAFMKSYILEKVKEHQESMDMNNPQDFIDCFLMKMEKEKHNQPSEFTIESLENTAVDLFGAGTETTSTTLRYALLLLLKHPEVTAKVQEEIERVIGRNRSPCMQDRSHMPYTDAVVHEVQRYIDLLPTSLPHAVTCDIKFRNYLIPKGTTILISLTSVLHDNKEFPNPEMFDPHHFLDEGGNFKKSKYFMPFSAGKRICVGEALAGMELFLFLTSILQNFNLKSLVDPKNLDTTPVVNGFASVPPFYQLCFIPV

The IC50 is the concentration that gives 50% inhibition. Read a low IC50 as inhibition by little substance. On to `CC(C)=CCC/C(C)=C/COc1c2ccoc2cc2oc(=O)ccc12` [BG, (E)-4-[(3,7-dimethyl-2,6-octadienyl)oxy]-7H-furo[3,2-g][1]benzopyran-7-one], for which the IC50 at P450 3A4 [1] was around 4.6 µM; on P450 2E1 it was around 3.9 µM; against P450 2C9, around 2.4 µM; against P450 2D6 it was around 3 µM. Moreover, the inhibition at 2 μM at P450 2C19 (2 μM BG) was around 71%. Besides, the inhibition at 20 μM at P450 2C19 (20 μM BG) is around 100%. Also, the “decrease of the amount of apoP450 3A4” value on P450 3A4 [2] (50 μM BG, reverse phase HPLC, vs −NADPH control) is recorded as “about 50%”. In addition, at P450 3A4 [2] (BG inactivated P450 3A4 sample), the heme recovered entry is “Approximately 90%”. In addition, at P450 3A4 [2] (compared with −NADPH controls), the “reductase and cytochrome b5 protein recovered from the column” value is given as around 100%. At P450 2A6, the “P450 2A6 activity in human liver microsomes” value is on record as “inhibited”. Also, the “P450 1A2 activity in human liver microsomes” value on P450 1A2 is recorded as “inhibited”. The “decrease of P450 content (reduced-CO spectrum)” value on P450 3A4 [3] (with NADPH) is on record as “approximately 40%”. For the same compound, the P450 at P450 3A4 [3] (BG+/NADPH+) turned out to be 0.27 nmol/mL; on P450 3A4 [3] (BG+/NADPH−), 0.47 nmol/mL. The “inactivation of testosterone 6β-hydroxylation activity” value on P450 3A4 [4] (2 μM BG with α-naphathoflavone 6 to 50 μM) is recorded as “about 55%”. Besides, the “loss of testosterone 6β-hydroxylation activity” value on P450 3A4 [4] (50 μM BG, with NADPH, 37° C., 15 minutes) came to 90%. The “Testosterone 6β-hydroxylation” value is 0.8 nmol/min/nmol on P450 3A4 [4] (BG+/NADPH+, 50 μM BG, 37° C., 15 minutes) and 2.9 nmol/min/nmol at P450 3A4 [4] (BG+/NADPH−, 50 μM BG, 37° C., 15 minutes). The compound also came in with a KI (inactivation) on P450 3A4 [4] (setting [5]) of 7.7 µM. In addition, at P450 3A4 [4] (setting [5]), the inhibition at 50 μM was around 60%. At P450 3A4 [4] (setting [5]), the inhibition at […] was around 55%. Also, the kinact on P450 3A4 [4] (read-out: Kinactivation (maximal rate constant of inactivation)) is 0.005 s⁻¹. For the same compound, the “Kinactivation (maximal rate constant of inactivation)” value at P450 3A4 [4] (reconstituted system) came to 0.3 min⁻¹.

Source of the values: US6509371B1, “Compositions containing Bergamottin for increasing the oral bioavailability of pharmaceutical agents” (Warner-Lambert Company, priority 1997, dated 2003).
